From publication PMC11620503 (Antimicrobial Agents and Chemotherapy, 2024)
In brackets after ≈: the same amount, converted by molar mass. Like-named read-outs stand apart in the source and are kept apart here.

How the values were obtained:
[1] = tested on: 55 isolates of A. baumannii; test: MIC, broth microdilution; type: cell-based, Acinetobacter baumannii; settings: Acinetobacter baumannii (55), fixed concentration (μg/mL) in label
[2] = tested on: E. coli CDC-119 (NDM-1), PBP3 mutations; test: MIC, broth microdilution; type: cell-based; settings: Escherichia coli
[3] = tested on: MEM-, imipenem/relebactam-, and ceftolozane/tazobactam-nonsusceptible P. aeruginosa; test: MIC, broth microdilution; type: cell-based, Pseudomonas aeruginosa; settings: for MIC50 / MIC90: Pseudomonas aeruginosa; for MIC50: read-out: MIC50; for MIC90: read-out: MIC90
[4] = tested on: serine-carbapenemase-producing isolates (Enterobacterales); test: MIC, broth microdilution; type: cell-based; settings: Enterobacterales with serine-carbapenemases (61), CDC AR Bank
[5] = tested on: MEM-nonsusceptible Enterobacterales with metallo-carbapenemases; test: MIC, broth microdilution; type: cell-based; settings: MEM-nonsusceptible Enterobacterales with metallo-carbapenemases (41), CDC AR Bank; for MIC50 / MIC90: fixed concentration (μg/mL) in label; for MIC50: read-out: MIC50; for MIC90: read-out: MIC90
[6] = tested on: E. coli CDC-151 (NDM-5), PBP3 mutations; test: MIC, broth microdilution; type: cell-based; settings: Escherichia coli, fixed BLI concentration (μg/mL) in parentheses in label
[7] = tested on: E. coli CDC-149 (NDM-7), PBP3 mutations; test: MIC, broth microdilution; type: cell-based; settings: Escherichia coli
[8] = tested on: E. coli CDC-150 (NDM-5), PBP3 mutations; test: MIC, broth microdilution; type: cell-based; settings: Escherichia coli, fixed BLI concentration (μg/mL) in parentheses in label
[9] = tested on: Cefepime/taniborbactam-nonsusceptible Enterobacterales with metallo-carbapenemases (25); test: MIC, broth microdilution; type: cell-based; settings: CDC AR Bank; for MIC50 / MIC90: fixed concentration (μg/mL) in label
[10] = tested on: Enterobacterales (154), CDC AR Bank; test: MIC, broth microdilution; type: cell-based
[11] = tested on: MEM-nonsusceptible Enterobacterales; test: MIC, broth microdilution; type: cell-based; settings: MEM-nonsusceptible Enterobacterales (92), CDC AR Bank
[12] = tested on: E. coli CDC-435 (NDM-1), PBP3 mutations; test: MIC, broth microdilution; type: cell-based; settings: Escherichia coli, fixed BLI concentration (μg/mL) in parentheses in label
[13] = tested on: MEM-nonsusceptible Enterobacterales with serine-carbapenemases; test: MIC, broth microdilution; type: cell-based; settings: MEM-nonsusceptible Enterobacterales with serine-carbapenemases (42), CDC AR Bank
[14] = tested on: E. coli CDC-137 (NDM-6), PBP3 mutations; test: MIC, broth microdilution; type: cell-based; settings: Escherichia coli, fixed BLI concentration (μg/mL) in parentheses in label
[15] = tested on: E. coli CDC-162 (NDM-7), PBP3 mutations; test: MIC, broth microdilution; type: cell-based; settings: Escherichia coli
[16] = tested on: 96 P. aeruginosa; test: MIC, broth microdilution; type: cell-based, Pseudomonas aeruginosa; settings: Pseudomonas aeruginosa (96)
[17] = tested on: Acinetobacter baumannii (46); test: MIC, broth microdilution; type: cell-based
[18] = tested on: MBL-producing isolates (Enterobacterales); test: MIC, broth microdilution; type: cell-based; settings: Enterobacterales with metallo-carbapenemases (47), CDC AR Bank, fixed concentration (μg/mL) in label
[19] = tested on: Peptoniphilus asaccharolyticus ATCC 14963; test: MIC, agar dilution, reference strains of anaerobic bacteria; type: cell-based; settings: ATCC14963
[20] = tested on: Bacteroides fragilis KUB2982; test: as above; type: cell-based
[21] = tested on: Clostridioides difficile ATCC 43255; test: as above; type: cell-based; settings: ATCC43255
[22] = tested on: Bacteroides ovatus KUB3009; test: as above; type: cell-based
[23] = tested on: Prevotella melaninogenica KUB3005; test: as above; type: cell-based
[24] = tested on: Peptostreptococcus anaerobius ATCC 27337; test: as above; type: cell-based; settings: ATCC27337
[25] = tested on: Clostridioides difficile ATCC 700057; test: as above; type: cell-based; settings: ATCC700057
[26] = tested on: Eggerthella lenta ATCC 43055; test: as above; type: cell-based; settings: ATCC43055
[27] = tested on: Prevotella buccae KUB2992; test: as above; type: cell-based; settings: Segatella buccae
[28] = tested on: Olsenella uli KUB3012; test: as above; type: cell-based
[29] = tested on: Bacteroides fragilis ATCC 25285; test: as above; type: cell-based; settings: ATCC25285
[30] = tested on: Prevotella histicola KUB2989; test: as above; type: cell-based
[31] = tested on: Bacteroides fragilis KUB2983; test: as above; type: cell-based
[32] = tested on: Bacteroides thetaiotaomicron ATCC 29741; test: as above; type: cell-based; settings: ATCC29741
[33] = tested on: Bacteroides thetaiotaomicron KUB2984; test: as above; type: cell-based
[34] = tested on: Bulleidia extructa KUB3013; test: as above; type: cell-based
[35] = tested on: Actinomyces odontolyticus ATCC 17929; test: as above; type: cell-based; settings: Schaalia odontolytica, ATCC17929
[36] = tested on: Parvimonas micra KUB3000; test: as above; type: cell-based
[37] = tested on: Finegoldia magna ATCC 29328; test: as above; type: cell-based; settings: ATCC29328
[38] = tested on: Propionibacterium acnes ATCC 11827; test: as above; type: cell-based; settings: Cutibacterium acnes, ATCC11827
[39] = tested on: Fusobacterium nucleatum ATCC 25586; test: as above; type: cell-based; settings: ATCC25586
[40] = tested on: Prevotella intermedia KUB2991; test: as above; type: cell-based
[41] = tested on: Clostridium perfringens ATCC 13124; test: microbe, parasite or virus in culture; type: cell-based; settings: ATCC13124
[42] = tested on: Clostridioides difficile ATCC BAA-1803; test: MIC, agar dilution, reference strains of anaerobic bacteria; type: cell-based; settings: ATCCBAA1803
[43] = tested on: Fusobacterium varium ATCC 27725; test: as above; type: cell-based; settings: ATCC27725
[44] = tested on: Clostridioides difficile ATCC BAA-1870; test: as above; type: cell-based; settings: ATCCBAA1870
[45] = tested on: Atopobium rimae KUB3014; test: as above; type: cell-based; settings: Lancefieldella rimae
[46] = in humans; cited from earlier work
[47] = Imipenem/relebactam-nonsusceptible Pseudomonas aeruginosa (43), CLSI breakpoints, marked c: breakpoints for β-lactam alone
[48] = MEM-nonsusceptible Pseudomonas aeruginosa (76), CLSI breakpoints, marked c: breakpoints for β-lactam alone
[49] = Imipenem/relebactam-nonsusceptible Pseudomonas aeruginosa (43), fixed concentration (μg/mL) in label
[50] = MEM-nonsusceptible Pseudomonas aeruginosa (76), fixed concentration (μg/mL) in label
[51] = CLSI breakpoints, marked c: breakpoints for β-lactam alone
[52] = fixed concentration (μg/mL) in label, read-out: MIC50
[53] = fixed concentration (μg/mL) in label, read-out: MIC90
[54] = fixed concentration (μg/mL) in label

C[C@H]1[C@H](NC(=O)/C(=N\OC(C)(C)C(=O)O)c2csc(N)n2)C(=O)N1S(=O)(=O)O [ATM, aztreonam]
MIC50 ([1]; read-out: MIC50): 64 µg/mL (≈ 147 µM) | MIC90 ([1]; read-out: MIC90): > 64 µg/mL | MIC [2]: > 64 µg/mL | CLSI MIC interpretation (%) I ([3]; I, intermediate (including susceptible dose-dependent), CLSI breakpoints, last subgroup of Table 2): 8.9% | CLSI MIC interpretation I (intermediate) [3, 47]: 9.3% | CLSI MIC interpretation R (resistant) [3, 47]: 60.5% | CLSI MIC interpretation S (susceptible) [3, 47]: 30.2% | CLSI MIC interpretation R (resistant) [3, 48]: 56.6% | CLSI MIC interpretation S (susceptible) [3, 48]: 30.3% | MIC50 [3, 49]: 32 µg/mL | MIC90 [3, 49]: > 64 µg/mL | MIC50 [3, 50]: 32 µg/mL (≈ 73.5 µM) | MIC90 [3, 50]: > 64 µg/mL | MIC50 ([3]; Table 2, broth microdilution): 32 µg/mL (≈ 73.5 µM) | MIC90 ([3]; Table 2, broth microdilution): > 64 µg/mL | CLSI MIC interpretation (%) R ([3]; R, resistant, CLSI breakpoints, last subgroup of Table 2): 62.2% | CLSI MIC interpretation (%) S ([3]; S, susceptible, CLSI breakpoints, last subgroup of Table 2): 28.9% | CLSI MIC interpretation I (intermediate) [4, 51]: 3.3% | CLSI MIC interpretation R (resistant) [4, 51]: 85.2% | CLSI MIC interpretation S (susceptible) [4, 51]: 11.5% | MIC50 [4, 52]: > 64 µg/mL | MIC90 [4, 53]: > 64 µg/mL | CLSI MIC interpretation I (intermediate) [5, 51]: 0% | CLSI MIC interpretation R (resistant) [5, 51]: 85.4% | CLSI MIC interpretation S (susceptible) [5, 51]: 14.6% | MIC50 [5]: > 64 µg/mL | MIC90 [5]: > 64 µg/mL | MIC [6]: 32 µg/mL (≈ 73.5 µM) | MIC [7]: 0.5 µg/mL (≈ 1.15 µM) | MIC [8]: 32 µg/mL (≈ 73.5 µM) | CLSI MIC interpretation I (intermediate) [9, 51]: 0% | CLSI MIC interpretation R (resistant) [9, 51]: 96% | CLSI MIC interpretation S (susceptible) [9, 51]: 4% | MIC50 [9]: > 64 µg/mL | MIC90 [9]: > 64 µg/mL | CLSI MIC interpretation I (intermediate) [10, 51]: 2.6% | CLSI MIC interpretation R (resistant) [10, 51]: 80.5% | CLSI MIC interpretation S (susceptible) [10, 51]: 16.9% | MIC50 [10, 54]: > 64 µg/mL | MIC90 [10, 54]: > 64 µg/mL | CLSI MIC interpretation I (intermediate) [11, 51]: 1.1% | CLSI MIC interpretation R (resistant) [11, 51]: 90.2% | CLSI MIC interpretation S (susceptible) [11, 51]: 8.7% | MIC50 [11, 52]: > 64 µg/mL | MIC90 [11, 53]: > 64 µg/mL | MIC [12]: > 64 µg/mL | CLSI MIC interpretation I (intermediate) [13, 51]: 2.4% | CLSI MIC interpretation R (resistant) [13, 51]: 92.9% | CLSI MIC interpretation S (susceptible) [13, 51]: 4.8% | MIC50 [13, 52]: > 64 µg/mL | MIC90 [13, 53]: > 64 µg/mL | MIC [14]: > 64 µg/mL | MIC [15]: > 64 µg/mL | CLSI MIC interpretation R (resistant) [16, 51]: 47.9% | CLSI MIC interpretation S (susceptible) [16, 51]: 39.6% | MIC50 [16, 52]: 16 µg/mL (≈ 36.7 µM) | MIC90 [16, 53]: > 64 µg/mL

CO/N=C(\C(=O)N[C@@H]1C(=O)N2C(C(=O)[O-])=C(C[N+]3(C)CCCC3)CS[C@H]12)c1csc(N)n1 [FEP, cefepime]
MIC [2]: > 64 µg/mL | CLSI MIC interpretation I (intermediate) [17, 51]: 4.3% | CLSI MIC interpretation R (resistant) [17, 51]: 95.7% | CLSI MIC interpretation S (susceptible) [17, 51]: 0% | MIC50 [17, 54]: 64 µg/mL (≈ 133 µM) | MIC90 [17, 54]: > 256 µg/mL | MIC50 [5]: > 64 µg/mL | MIC90 [5]: > 64 µg/mL | MIC [6]: > 64 µg/mL | MIC [7]: > 64 µg/mL | MIC [8]: > 64 µg/mL | MIC50 [9]: > 64 µg/mL | MIC90 [9]: > 64 µg/mL | MIC [12]: > 64 µg/mL | MIC [14]: > 64 µg/mL | MIC [15]: > 64 µg/mL | MIC50 ([18]; read-out: MIC50): > 64 µg/mL | MIC90 ([18]; read-out: MIC90): > 64 µg/mL

Cc1ncc([N+](=O)[O-])n1CCO [Metronidazole, metronidazole]
MIC [19]: 1 µg/mL (≈ 5.84 µM) | MIC [20]: 2 µg/mL (≈ 11.7 µM) | MIC [21]: 1 µg/mL (≈ 5.84 µM) | MIC [22]: 1 µg/mL (≈ 5.84 µM) | MIC [23]: 1 µg/mL (≈ 5.84 µM) | MIC [24]: 0.5 µg/mL (≈ 2.92 µM) | MIC [25]: 0.5 µg/mL (≈ 2.92 µM) | MIC [26]: 1 µg/mL (≈ 5.84 µM) | MIC [27]: 2 µg/mL (≈ 11.7 µM) | MIC [28]: 4 µg/mL (≈ 23.4 µM) | MIC [29]: 1 µg/mL (≈ 5.84 µM) | MIC [30]: 2 µg/mL (≈ 11.7 µM) | MIC [31]: 0.5 µg/mL (≈ 2.92 µM) | MIC [32]: 2 µg/mL (≈ 11.7 µM) | MIC [33]: 1 µg/mL (≈ 5.84 µM) | MIC [34]: 2 µg/mL (≈ 11.7 µM) | MIC [35]: > 64 µg/mL | MIC [36]: 0.5 µg/mL (≈ 2.92 µM) | MIC [37]: 2 µg/mL (≈ 11.7 µM) | MIC [38]: > 64 µg/mL | MIC [39]: ≤ 0.125 µg/mL | MIC [40]: 1 µg/mL (≈ 5.84 µM) | MIC [41]: 2 µg/mL (≈ 11.7 µM) | MIC [42]: 2 µg/mL (≈ 11.7 µM) | MIC [43]: 0.5 µg/mL (≈ 2.92 µM) | MIC [44]: 1 µg/mL (≈ 5.84 µM) | MIC [45]: 1 µg/mL (≈ 5.84 µM)

O=C(O)c1c(F)ccc2c1OB(O)[C@@H]1C[C@H]21 [xeruborbactam]
protein binding rate [46]: over 90%
